The text below walks through data of patent US8575145B2, “Triazolopyridine compounds as PIM kinase inhibitors” (Array BioPharma Inc., priority 2008, dated 2013).

Assay [1] has as its system CD4+ T cells. As to the kind of experiment: T Cell in vitro Functional Assay (D): IL-22 production. The assay is classed as cell-based. Conditions: Mus musculus; CD4+ T cells cultured with IL-6/TGFβ, IL-23 stimulation 18 hours, ELISA. The procedure:
(§1) The in vitro assays to assess the effects of the compounds of Examples 16, 18 and 26 on T cells were conducted as described in assays A, B, C and D below. CD4+ T cells were isolated from red blood cell-depleted splenocytes of C57B1/6J mice (Jackson Laboratories, catalog #000664) using CD4+ T cell isolation kit (Miltenyi, catalog #130-090-860).
In assay (D), 1,000,000 cells/mL of purified CD4+ T cells were mixed with 1 μg/mL anti-CD28, 50 ng/mL IL-6 (R&D Systems cat #406-ML-025/CF), 1 ng/mL TGFβ (R&D Systems cat #303-B2-002), 2 μg/mL anti-IL-4 (R&D Systems cat #AB-404-NA), 2 μg/mL anti-IFNγ (R&D Systems cat #AB-485-NA) and placed into plates coated with 1 μg/mL anti-CD3. After 4 days, cells were harvested, washed and 100,000 cells were plated into 96 well plate. A dilution series of compounds were prepared at 200× the final concentration in DMSO, then 10× stocks were prepared by dilution in cell culture media. 10 μL of 10× stocks were added to the cells in the 96 well plate. After 2 hours, 50 ng IL-23 (R&D Systems catalog #1887-ML-010/CF) was added to each well and 18 hours later supernatants were removed and tested for IL-22 levels by ELISA (R&D Systems catalog #M2200). ELISA plates were quantified relative to a standard curve using Molecular Devices Versamax Reader at […] and Softmax Pro software.
(§2) For each of assays A, B, C and D, the values for each well were converted to a percent of vehicle-treated (DMSO) control (POC). These POC values were plotted as a function of compound concentration and an IC50 calculated using a 4-parameter curve-fit analysis program.
Background: ELISA stands for enzyme-linked immunosorbent assay.

The subject of assay [2] is BaF3 (Mouse pro-B-cell line). Briefly: Cellular Proliferation Assay, cell line F. Conditions: BaF3, 72 hours, CelltiterBlue, read-out: Cell Line F antiproliferative IC50. The assay is classed as cell-based. The procedure:
(§3) The assay for determination of the antiproliferative activity of multiple Pim inhibitors in the JAK2-driven cell lines was conducted as follows. Cells were plated out to 96-well plates at an initial density of 10,000 cells/well in 95 pt. Compounds were prepared at […] in DMSO by conducting 3-fold serial dilutions to give a 10-point dosing curve having a high dose of 1000 μM. Aliquots (5 μt) of these dilutions were then transferred to the appropriate wells of the 96-well plates containing cells to yield a final DMSO concentration of 0.5%. The cells were then incubated with compound for 72 hours at 37° C., 5% CO2. CelltiterBlue reagent (Promega, Catalog #: G8080) was then added (20 μL/well) and incubated at 37° C., 5% CO2 for 1-8 hours depending on the cell line being analyzed. The plate was then quantified employing a fluorescence plate reader (Model: Gemini [Molecular Devices]; Settings: 560 nm (Ex)/590 nm (Em) 570 nm (cut-off) [CellTiter Blue Assay].
(§4) The values for each well were then converted to a percent of untreated control (POC). These POC values were then plotted as a function of compound concentration. A 4-parameter curve-fit analysis was performed for each compound dilution and an IC50 value was calculated from this curve.
(§5) Cell lines • A: PC3 (Androgen independent prostate cancer) • B: K562 (Ph+chronic myelogenous leukemia) • C: MV4-11 (Acute myelogenous leukemia) • D: BxPC3 (Pancreatic Cancer) • E: HepG2 (Hepatocellular Carcinoma) • F: BaF3 (Mouse pro-B-cell line) • G: BaF3 TEL-JAK2 (Mouse pro-B-cell transformed with TEL-JAK2 fusion) • H: BaF2 BCR-Ab1 (Mouse pro-B-cell transformed with BCR-Ab1 fusion)
(The colour change of resazurin is a common sign of viable cells or microbes.)

Assay [3] has as its system K562 (Ph+chronic myelogenous leukemia). Briefly: Cellular Proliferation Assay, cell line B. The assay is classed as cell-based. Conditions: Homo sapiens; K562, 72 hours, CelltiterBlue; read-out: Cell Line B antiproliferative IC50. The procedure:
as §3, §4, §5

In assay [4] the test system is CD4+ T cells. As to the kind of experiment: T Cell in vitro Functional Assay (B): IL-2 production. The assay is classed as cell-based. Conditions: Mus musculus, anti-CD3/anti-CD28, 40 hours, ELISA. The procedure:
as §1
(§6) In assay (A), purified CD4+ T cells were plated in 96 well plates at 90000 cells/well in 90 μL. A dilution series of the compounds of Examples 16, 18 and 26 were prepared at 100× the final concentration in DMSO and then diluted 10-fold into complete media (10× stocks). 10 μL of 10×compound stocks were added to appropriate wells of 96 well plates containing cells and incubated for 1 hour at 37° C., 5% CO2. The cell/compound mixtures were then transferred to a 96 well plate coated with anti-CD3 mAb (1 μg/mL; BD Pharmingen, catalog #553057) and soluble anti-CD28 mAb (1 μg/mL; BD Pharmingen, catalog #553294) was added. Plates were cultured at 37° C., 5% CO2 for 40 hours. 20 μL of the culture were removed for determination of proliferation using the CellTitre-Glo™ luminescent assay (Promega, Catalog #G7571) according to the manufacturer's protocol. The plate was quantified on a Packard TopCount instrument using luminescence protocol and data was analyzed using Prism software.
In assay (B), purified CD4+ cells were treated with compound and stimulated as described for assay (A). After 40 hours, supernatants were assayed for IL-2 using R&D duo set ELISA kits (catalog #DY402). ELISA plates were quantified relative to a standard curve using Molecular Devices Versamax Reader at […] and Softmax Pro software.
as §2

Assay [5] deals with BaF3 TEL-JAK2 (Mouse pro-B-cell transformed with TEL-JAK2 fusion). Briefly: Cellular Proliferation Assay, cell line G. The assay is classed as cell-based. The settings on record: BaF3 TEL-JAK2, 72 hours, CelltiterBlue, read-out: Cell Line G antiproliferative IC50. The procedure:
as §3, §4, §5

The subject of assay [6] is PC3 (Androgen independent prostate cancer). As to the kind of experiment: Cellular Proliferation Assay, cell line A. The assay is classed as cell-based. Conditions: PC3, 72 hours, CelltiterBlue; read-out: Cell Line A antiproliferative IC50. The procedure: as §3, §4, §5
Assay [7] has as its system CD4+ T cells. Briefly: T Cell in vitro Functional Assay (A): proliferation. Conditions: Mus musculus, anti-CD3/anti-CD28, 40 hours. The assay is classed as cell-based. The procedure:
as §1, §6, §2

The test system of assay [8] is BaF2 BCR-Ab1 (Mouse pro-B-cell transformed with BCR-Ab1 fusion). Briefly: Cellular Proliferation Assay, cell line H. The assay is classed as cell-based. The settings on record: BaF2 BCR-Ab1, 72 hours, CelltiterBlue, read-out: Cell Line H antiproliferative IC50. The procedure: as §3, §4, §5
The target of assay [9] is recombinant rat PIM-3 (Rattus norvegicus (Rat), UniProt O70444). As to the kind of experiment: PIM-3 Enzyme Assay. The settings on record: read-out: PIM-3 IC50; 30 μM ATP, 0.5 nM PIM-3.
The target in assay [10] is GST-tagged recombinant full-length human PIM-2 (Homo sapiens (Human), UniProt Q9P1W9). Briefly: PIM-2 Enzyme Assay. The settings on record: read-out: PIM-2 IC50; 4 μM ATP, […] PIM-2.
GST-tagged recombinant full-length human PIM-2, sequence (Q9P1W9 whole entry): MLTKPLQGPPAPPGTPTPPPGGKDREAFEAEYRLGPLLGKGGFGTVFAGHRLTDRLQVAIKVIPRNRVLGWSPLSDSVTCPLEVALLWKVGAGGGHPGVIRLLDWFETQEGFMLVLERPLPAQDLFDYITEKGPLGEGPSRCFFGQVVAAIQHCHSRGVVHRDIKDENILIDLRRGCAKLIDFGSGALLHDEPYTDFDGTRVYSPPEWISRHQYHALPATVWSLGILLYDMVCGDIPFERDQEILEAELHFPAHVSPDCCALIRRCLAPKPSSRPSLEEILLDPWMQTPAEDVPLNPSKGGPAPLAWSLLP

Counter-ions that a name gives are not always drawn. Where only a bound is given, the exact number is not on record here.

For `F[C@@H]1CNCCC1Oc1cccc2ccc(-c3nnc4ccccn34)nc12` (stereo in doubt) [Example 26, 2-([1,2,4]triazolo[4,3-a]pyridin-3-yl)-8-((cis)-3-fluoropiperidin-4-yloxy)quinoline dihydrochloride], the IC50 (usually the concentration needed to halve the response being measured) in [1] was at most 5000 nM; in [2], below 2000 nM; in assay [3], below 10000 nM; in assay [4], at most 5000 nM; in assay [5], below 2000 nM; in assay [6] it was below 5000 nM. Further, the IC50 in assay [7] was at most 5000 nM; in assay [8] it was below 2000 nM; in assay [9], 9 nM; in assay [10] it was 137 nM.
As to `c1cc(OCC2CCCNC2)c2nc(-c3nnc4ccccn34)ccc2c1` (stereo not drawn) [Example 16, 2-([1,2,4]Triazolo[4,3-a]pyridin-3-yl)-8-(piperidin-3-ylmethoxy)quinoline], the IC50 in assay [1] was at most 1000 nM; in assay [2], below 2000 nM; in [3] it was below 10000 nM; in assay [4], at most 1000 nM; in assay [5] it was below 2000 nM; in assay [6], below 5000 nM. The IC50 is at most 1000 nM in assay [7], below 5000 nM in assay [8], 4 nM in assay [9] and 169 nM in assay [10].
With `CC(C)(CN)COc1cccc2ccc(-c3nnc4ccccn34)nc12` [Example 18, 3-(2-([1,2,4]Triazolo[4,3-a]pyridin-3-yl)quinolin-8-yloxy)-2,2-dimethylpropan-1-amine], the IC50 was at most 1000 nM in assay [1]; below 2000 nM in [2]; below 5000 nM in [3]; at most 1000 nM in assay [4]; below 2000 nM in assay [5]; below 2000 nM in assay [6]. Further, the IC50 is at most 1000 nM in assay [7], below 2000 nM in assay [8], 2 nM in [9] and 49 nM in [10].
